Experimental data reported in US6652853B2, “Method for treating cancer using A33 specific antibodies and chemotherapeutic agents” (Ludwig Institute for Cancer Research, priority 2001, dated 2003).

System: cell cultures (cancer cells)
Assay: Cytotoxic effects in cell cultures, QFA, calicheamicin and huA33 conjugates
Settings: added to cell cultures

calicheamicin
cytotoxic effects in vitro: weak cytotoxic effects
